Source: paper PMC11050443, “Discovery of Strong 3-Nitro-2-Phenyl-2H-Chromene Analogues as Antitrypanosomal Agents and Inhibitors of Trypanosoma cruzi Glucokinase” (International Journal of Molecular Sciences, 2024)
Where two headings read alike, the source gives them in different places.

How the values were obtained:
[1] = biological target: T1, TcGlcK (Trypanosoma cruzi glucokinase) (Trypanosoma cruzi, UniProt Q4E4E1); test: TcGlcK primary screening assay (LmG6PDH-coupled, Dixon plots); format: biochemical; conditions: for Mode of TcGlcK inhibition: Cornish-Bowden method, Dixon plots of [D-Glc]/V versus inhibitor concentration; for Ki: Dixon plots, 0.4, 0.6, 0.8 mM D-glucose, N = 1 unless marked, N = 3 for compounds 1, 4, 9, 11
T1 construct: made in house; host or cells: Escherichia coli BL21(DE3)
T1 sequence (Q4E4E1 1-376): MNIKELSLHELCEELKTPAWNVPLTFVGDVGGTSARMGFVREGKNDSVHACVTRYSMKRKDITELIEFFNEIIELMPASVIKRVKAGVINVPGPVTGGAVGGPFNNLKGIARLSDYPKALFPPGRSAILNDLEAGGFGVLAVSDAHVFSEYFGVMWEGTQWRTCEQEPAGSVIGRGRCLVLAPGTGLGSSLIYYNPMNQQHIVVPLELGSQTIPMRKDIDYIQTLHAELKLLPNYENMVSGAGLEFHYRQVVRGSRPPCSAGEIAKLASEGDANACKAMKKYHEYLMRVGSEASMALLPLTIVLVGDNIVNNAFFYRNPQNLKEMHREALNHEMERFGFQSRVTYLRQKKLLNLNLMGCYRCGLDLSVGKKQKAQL
Description: A primary screening assay was carried out for TcGlcK with the 3-nitro-2-phenyl-2H-chromene analogues. The data was subsequently processed for respective Ki values in order to assess enzyme inhibition. […] The primary screening assay was performed with the substrate D-glucose in various concentrations of 0.4 mM, 0.6 mM, and 0.8 mM to produce Dixon plots with different slopes. Each of the 3-nitro-2-phenyl-2H-chromene analogues were originally prepared at a working concentration of 1.0 mM and were dissolved in 100% DMSO. The final assay concentrations of the analogue compounds (inhibitors) ranged from 0.0–10.0 μM. The analogue compounds were pre-incubated with the enzyme system a minimum of 10 min prior to the initiation of the assay. The enzymatic reaction was carried out at room temperature (22 °C; temperature optimum) using ATP to initiate the reaction, and termination was performed after 120 s (time optimum) by stopping the reaction with the addition of an EDTA (pH 8.0) solution, to a final concentration of 100 mM. TcGlcK enzyme activity was analyzed for the production of NADPH. Each completed reaction mixture was added into a black, round-bottom microplate and scanned by a VANTAstar-F multi-mode microplate reader (BMG LABTECH, Inc.; Cary, NC, USA). The instrument was set to fluorescence mode and the wavelengths (λex = 340 nm; λem = 485 nm) were set to observe the relative fluorescence units of NADPH [40]. The enzyme-inhibition kinetics Ki value determination and the mode of inhibition was determined using the Cornish–Bowden Dixon Plot analysis method.

[2] = test system: T. brucei brucei (427 strain) bloodstream form; test: In vitro T. brucei biological assay (Alamar blue); format: cell-based, Trypanosoma brucei brucei; conditions: for anti-T. brucei activity (in words): T. brucei brucei 427 strain bloodstream form
Description: The in vitro cell culture preparation of T. brucei brucei (427 strain) trypomastigote bloodstream form followed by treatment with inhibitors has recently been described by Ajayi and colleagues. The 3-nitro-2-phenyl-2H-chromene compounds (inhibitors) that were prepared as 10.0 mM stock solutions in 100% DMSO were thawed from −80 °C to room temperature. HMI-9 medium [Iscove’s modification of DMEM supplemented with 10% FBS, 10% serum plus (SAFC), 0.05 mM bathocuproinesulfonate, 1.5 mM L-cysteine, 1.0 mM hypoxanthine, 0.2 mM β-mercaptoethanol, 0.16 mM thymidine, and 1.0 mM pyruvate] was prepared. In a sterile, round-bottom, 96-well microplate, 100 μL of HMI-9 medium was added to each well. A volume of 2.0 μL of a given compound plus a volume of 98.0 μL of fresh media were both added to a well in the first row of the 96-well microplate; this was performed for each compound to be tested. Solutions were mixed with a micropipette followed by transfer of 100 μL to the next row and repeated. The compound solutions ranged from 0.0781–10.0 μM and this was accomplished by serial dilution using a 2-fold dilution. T. brucei parasites were centrifuged for 10 min at 900× g (without centrifuge breaks). The media was carefully discarded by aspiration and the parasites were resuspended in warm media. Parasites were counted in a Newbauer chamber. Afterwards, the parasites were diluted to 50,000 cells/mL (5000 cells/well) and 100 μL was added to each well of the 96-well microplate using a multichannel pipette. After 48 h, 20.0 μL of Alamar blue was added to each well and the plate was placed into an incubator for 4 h at 37 °C. Fluorescence readings were measured using a Victor Nivo multimode microplate reader (PerkinElmer, Inc.; Shelton, CT, USA) at λex = 530 nm and λem = 590 nm. All measurements were performed in triplicate and IC50 determinations for percent growth inhibition were carried out using GraphPad Prism 10.0. The detergent SDS was used as a positive control and its final solution concentration was 0.5%. Three control experiments were performed, as follows: (a) parasites alone, (b) parasites and 0.5% SDS, and (c) the medium alone.

[3] = biological target: T2, LmG6PDH (Leuconostoc mesenteroides glucose-6-phosphate dehydrogenase) (Leuconostoc mesenteroides, UniProt P11411); test: Confirmatory assay on the LmG6PDH enzyme-coupled system; format: biochemical; conditions: for LmG6PDH inhibitory effect (in words): 20 µM compound; for inhibition at 20 µM: read-out: LmG6PDH Inh20
T2 construct: purchased Worthington Biochemical Corporation
Description: Two criteria were examined in order to certify on-target confirmed hits: (a) the assessment of potential inhibition to the LmG6PDH enzyme-coupled system, and (b) the precision of the assay (per inhibitor), performed in quadruplicate (N = 4). Compounds were tested in quadruplicate in a black, round-bottom 96-well microplate in which wells were filled with a buffered solution (50 mM triethanolamine, 150 mM NaCl) amounting to a total volume of 206.5 μL that contained the following reagents at final assay concentrations: LmG6PDH (6.1 μg/mL), NADP^+ (0.54 mM), ATP (0.54 mM), MgCl2 (6.9 mM), DMSO (1.0% by vol.), D-glucose-6-phosphate (0.80 mM), and a 3-nitro-2-phenyl-2H-chromene analogue (20.0 μM). The analogue compounds were pre-incubated with the enzyme system a minimum of 10 min prior to the initiation of the assay. The enzymatic reactions were initiated and terminated similarly as described in the TcGlcK primary screen (vide supra). The production of NADPH was monitored using the VANTAstar-F multi-mode microplate reader set to fluorescent mode, λex = 340 nm and λem = 485 nm, over a 120-s timeframe.

[4] = T. brucei brucei 427 strain bloodstream form growth inhibition, 48 h, N = 3
[5] = Trypanosoma brucei, 48 h, T. brucei brucei 427 strain bloodstream form growth inhibition, N = 3
[6] = Trypanosoma brucei, bound stated in the text for the top seven anti-T. brucei compounds
[7] = percentage of inhibition at 20 µM compound in comparison to controls, N = 4

T2 sequence (P11411 whole entry): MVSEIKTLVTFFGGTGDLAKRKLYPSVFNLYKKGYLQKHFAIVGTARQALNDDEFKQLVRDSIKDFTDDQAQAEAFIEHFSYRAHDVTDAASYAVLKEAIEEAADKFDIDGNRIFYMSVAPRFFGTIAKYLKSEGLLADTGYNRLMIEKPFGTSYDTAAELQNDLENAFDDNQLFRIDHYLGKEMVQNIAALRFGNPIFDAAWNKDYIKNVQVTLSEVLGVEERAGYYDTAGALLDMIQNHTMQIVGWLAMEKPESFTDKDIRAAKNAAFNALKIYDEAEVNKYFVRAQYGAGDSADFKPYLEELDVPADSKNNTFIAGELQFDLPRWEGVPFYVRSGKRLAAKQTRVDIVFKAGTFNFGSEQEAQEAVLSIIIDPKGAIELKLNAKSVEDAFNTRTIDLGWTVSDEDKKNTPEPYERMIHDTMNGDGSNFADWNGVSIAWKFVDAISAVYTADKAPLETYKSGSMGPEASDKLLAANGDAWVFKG

SMILES	Mode of TcGlcK inhibition [1]	Ki [1]	anti-T. brucei activity (in words) [2]	IC50 [2, 4]	IC50 [2, 5]	IC50 [2, 6]	LmG6PDH inhibitory effect (in words) ([3]; N = 4)	inhibition at 20 µM [3, 7]	inhibition at 20 µM [3]
COc1ccc(C2Oc3ccc(Br)cc3C=C2[N+](=O)[O-])cc1OC (centres unmarked) [Compound 4, 6-Bromo-2-(3,4-dimethoxyphenyl)-3-nitro-2H -chromene]	mixed-mode inhibition	5500 ± 1800 nM	nanomolar potency	440 ± 30 nM	< 550 nM	< 750 nM	did not observe any significant LmG6PDH inhibitory effects	12.1%	
CCOc1ccc(C2Oc3ccc(Br)cc3C=C2[N+](=O)[O-])cc1OC (centres unmarked) [Compound 1, 6-Bromo-2-(4-ethoxy-3-methoxyphenyl)-3-nitro-2H -chromene]	uncompetitive inhibition	6200 ± 1200 nM	nanomolar potency		610 ± 30 nM	< 750 nM	did not observe any significant LmG6PDH inhibitory effects	15.4 ± 0.1%	
O=[N+]([O-])C1=Cc2cc(Br)cc(Br)c2OC1c1c(Cl)cccc1Cl (centres unmarked) [Compound 7, 2-(2,6-Dichlorophenyl)-6,8-dibromo-3-nitro-2H -chromene]		50000 nM	nanomolar potency		900 ± 330 nM			0%	
CCOc1ccc(C2Oc3ccc(Br)cc3C=C2[N+](=O)[O-])cc1OCC (centres unmarked) [Compound 2, 6-Bromo-2-(3,4-diethoxyphenyl)-3-nitro-2H -chromene]		46000 nM			1190 ± 40 nM			0%	
O=[N+]([O-])C1=Cc2ccccc2OC1c1c(Cl)cccc1Cl (centres unmarked) [Compound 13, 2-(2,6-Dichlorophenyl)-3-nitro-2H -chromene]		25000 nM			1280 ± 100 nM			0%	
COc1ccc(C2Oc3c(Br)cc(Br)cc3C=C2[N+](=O)[O-])cc1OC (centres unmarked) [Compound 5, 6,8-Dibromo-2-(3,4-dimethoxyphenyl)-3-nitro-2H -chromene]		35000 nM	nanomolar potency	420 ± 40 nM	< 550 nM	< 750 nM		0%	
COc1ccc(C2Oc3c(cc(Br)cc3OC)C=C2[N+](=O)[O-])cc1OC (centres unmarked) [Compound 3, 6-Bromo-2-(3,4-dimethoxyphenyl)-8-methoxy-3-nitro-2H -chromene]		24000 nM	nanomolar potency	520 ± 50 nM	< 550 nM	< 750 nM		0%	
CCOc1ccc(C2Oc3c(Br)cc(Br)cc3C=C2[N+](=O)[O-])cc1OC (centres unmarked) [Compound 6, 6,8-Dibromo-2-(4-ethoxy-3-methoxyphenyl)-3-nitro-2H -chromene]		6100 nM	nanomolar potency	360 ± 60 nM	< 550 nM	< 750 nM	did not observe any significant LmG6PDH inhibitory effects	16.1%	
O=[N+]([O-])C1=Cc2cc(Br)ccc2OC1c1ccccc1Cl (centres unmarked) [Compound 11, 6-Bromo-2-(2-chlorophenyl)-3-nitro-2H -chromene]	noncompetitive inhibition	20000 ± 4300 nM	nanomolar potency		860 ± 200 nM		did not observe any significant LmG6PDH inhibitory effects	15 ± 0.1%	
CCOc1ccc(C2Oc3c(cc(Br)cc3OC)C=C2[N+](=O)[O-])cc1OC (centres unmarked) [Compound 8, 6-Bromo-2-(4-ethoxy-3-methoxyphenyl)-8-methoxy-3-nitro-2H -chromene]		30000 nM	nanomolar potency		740 ± 140 nM	< 750 nM		0%	
CCOc1ccc(C2Oc3ccccc3C=C2[N+](=O)[O-])cc1OCC (centres unmarked) [Compound 10, 2-(3,4-Diethoxyphenyl)-3-nitro-2H -chromene]		23000 nM			1120 ± 300 nM				0%
CCOc1ccc(C2Oc3c(Cl)cc(Cl)cc3C=C2[N+](=O)[O-])cc1OCC (centres unmarked) [Compound 9, 6,8-Dichloro-2-(3,4-diethoxyphenyl)-3-nitro-2H -chromene]	mixed-mode inhibition	12300 ± 5500 nM	nanomolar potency		660 ± 50 nM	< 750 nM	did not observe any significant LmG6PDH inhibitory effects	10.1 ± 0.1%	
